Data published in ChEMBL document CHEMBL5050844 (2019).

How the values were obtained:
Type in all cases: functional, T cell line
[1] = Induction of anti-CD3/CD28 antibodies-stimulated human T cell activation at 4 uM assessed fold increase in IL-2 secretion measured by ELISA assay
[2] = Induction of anti-CD3/CD28 antibodies-stimulated human T cell activation at 1 uM assessed fold increase in IL-2 secretion measured by ELISA assay
[3] = Induction of anti-CD3/CD28 antibodies-stimulated human T cell activation at 0.3 uM assessed fold increase in IL-2 secretion measured by ELISA assay
[4] = Induction of anti-CD3 antibodies-stimulated human T cell activation at 8 uM assessed fold increase in IL-2 secretion measured by ELISA assay; also: reference of the scale not given here
[5] = Induction of anti-CD3 antibodies-stimulated human T cell activation at 1 uM assessed fold increase in IL-2 secretion measured by ELISA assay; also: reference of the scale not given here
[6] = Induction of anti-CD3/CD28 antibodies-stimulated human T cell activation at 4 uM assessed fold increase in CD25 expression measured by ELISA assay
[7] = Induction of anti-CD3/CD28 antibodies-stimulated human T cell activation at 1 uM assessed fold increase in CD25 expression measured by ELISA assay
[8] = Induction of anti-CD3/CD28 antibodies-stimulated human T cell activation at 0.3 uM assessed fold increase in CD25 expression measured by ELISA assay
[9] = Induction of anti-CD3 antibodies-stimulated human T cell activation at 8 uM assessed fold increase in CD25 expression measured by ELISA assay; also: reference of the scale not given here
[10] = Induction of anti-CD3 antibodies-stimulated human T cell activation at 1 uM assessed fold increase in CD25 expression measured by ELISA assay; also: reference of the scale not given here

| SMILES | fold change (FC) [1] | fold change (FC) [2] | fold change (FC) [3] | fold change (FC) [4] | fold change (FC) [5] | fold change (FC) [6] | fold change (FC) [7] | fold change (FC) [8] | fold change (FC) [9] | fold change (FC) [10] |
| --- | --- | --- | --- | --- | --- | --- | --- | --- | --- | --- |
| CC(Cc1nncn1C)c1cc(N[C@@H]2CCOC2)nc(N2Cc3c(cccc3C(F)(F)F)C2=O)c1 (single isomer, unassigned) | 1.01 | 1.01 | 1.01 | 0.101 | 0.051 | 1.01 | 1.01 | <=1 | 0.801 | 0.601 |
| Cc1cc(C(=O)Nc2cccc([C@H](C)Cc3nncn3C)c2)nc2ccnn12 | 5 | 1.01 | 1.01 | >=0.201 | 0.101 | 1.31 | 1.01 | 1.01 | >=1.001 | 0.601 |
| CC(C)c1cccc(C(=O)Nc2cccc([C@H](C)Sc3nncn3C)c2)n1 | >=7.5 | 2.51 | 2.51 | <=0.05 | <=0.05 | 1.01 | 1.01 | 1.01 | 0.801 | <=0.6 |
| C[C@H](Sc1nncn1C)c1ccnc(NC(=O)c2cc3c(C(F)(F)F)cccc3[nH]2)c1 | 1.01 | 1.01 | 1.01 | <=0.05 | <=0.05 | <=1 | <=1 | <=1 | <=0.6 | <=0.6 |
| C[C@H](Sc1nncn1C)c1cccc(NC(=O)c2ccc(Cl)c(C(F)(F)F)n2)c1 | 1.01 | <=1 | <=1 | <=0.05 | <=0.05 | 1.01 | 1.01 | 1.01 | >=1.001 | 0.801 |
| C[C@H](Cc1nncn1C)c1cccc(NC(=O)c2cccc(C(F)(F)CO)n2)c1 | <=1 | <=1 | <=1 | 0.051 | <=0.05 | >=1.76 | 1.31 | 1.01 | <=0.6 | <=0.6 |
| Cn1cnnc1[C@@H](F)[C@](C)(F)c1cccc(N2Cc3c(cccc3C(F)(F)F)C2=O)c1 (single isomer, unassigned) | 1.01 | 1.01 | 1.01 | 0.051 | <=0.05 | 1.01 | 1.01 | 1.01 | 0.601 | <=0.6 |
| Cc1ccc(C(=O)Nc2cccc([C@H](C)Sc3nncn3C)c2)nc1C | 2.51 | 2.51 | 1.01 | >=0.201 | <=0.05 | 1.31 | 1.01 | <=1 | 0.601 | <=0.6 |
| Cn1cnnc1[C@H](F)[C@](C)(F)c1cccc(N2Cc3c(cc(C4CC4)cc3C(F)(F)F)C2=O)c1 | 2.51 | 1.01 | <=1 | 0.101 | 0.051 | 1.01 | 1.01 | 1.01 | >=1.001 | 0.801 |
| C[C@H](Sc1nncn1C)c1cccc(NC(=O)c2cc(C(=O)N3CC(O)C3)ccn2)c1 | <=1 | <=1 | <=1 | <=0.05 | <=0.05 | <=1 | <=1 | <=1 | 0.601 | <=0.6 |
| C[C@H](Cc1nncn1C)c1cccc(NC(=O)c2cc(C(=O)N3CC[C@](C)(O)C3)ccn2)c1 | <=1 | <=1 | <=1 | <=0.05 | <=0.05 | 1.51 | 1.31 | 1.51 | <=0.6 | <=0.6 |
| C[C@@H](c1cccc(N2Cc3c(cccc3C(F)(F)F)C2=O)c1)[C@H](F)c1nncn1C (racemic) | 2.51 | 1.01 | 1.01 | 0.151 | 0.051 | 1.01 | 1.01 | 1.01 | >=1.001 | 0.601 |
| Cc1ccc(C(=O)Nc2cccc(C(C)C(F)(F)c3nncn3C)c2)nc1C1CC1 (stereo not given) | 2.51 | 1.01 | 1.01 | 0.101 | 0.051 | 1.01 | <=1 | <=1 | >=1.001 | 0.801 |
| C[C@H](Sc1nnc[nH]1)c1cccc(NC(=O)c2cc3ccccc3cn2)c1 | 1.01 | 1.01 | 1.01 | 0.051 | 0.051 | <=1 | <=1 | <=1 | <=0.6 | <=0.6 |
| C[C@H](Cc1nncn1C)c1cccc(NC(=O)c2ccn3nccc3n2)c1 | 2.51 | 1.01 | 1.01 | 0.151 | 0.051 | 1.01 | 1.01 | 1.01 | >=1.001 | 0.601 |
| C[C@H](Cc1nncn1C)c1cccc(N2Cc3c(ccnc3C(F)(F)F)C2=O)c1 | 5 | 2.51 | 1.01 | >=0.201 | 0.101 | 1.01 | 1.01 | 1.01 | >=1.001 | 0.801 |
| C[C@H](Cc1nncn1C)c1cccc(NC(=O)c2cnn3cccnc23)c1 | 1.01 | 1.01 | 1.01 | 0.051 | 0.051 | 1.01 | <=1 | <=1 | 0.601 | 0.601 |
| C[C@H](Cc1nncn1C)c1cccc(NC(=O)c2nc3c(C4CC4)cccc3[nH]2)c1 | 2.51 | 1.01 | 1.01 | >=0.201 | 0.051 | 1.01 | 1.01 | 1.01 | 0.801 | 0.601 |
| C[C@H](Cc1nncn1C)c1cccc(N2Cc3c(cc(C4CC4)nc3C3CC3)C2=O)c1 | 5 | 1.01 | 1.01 | >=0.201 | 0.051 | >=1.76 | 1.01 | 1.01 | 0.801 | 0.601 |
| C[C@H](Sc1nncn1C)c1cc(F)cc(N2Cc3c(cccc3C(F)(F)F)C2=O)c1 | <=1 | 1.01 | <=1 | <=0.05 | <=0.05 | 1.01 | 1.01 | 1.01 | 0.801 | <=0.6 |
| Cc1ncc(C(=O)Nc2cccc([C@H](C)Sc3nncn3C)c2)nc1C1CC1 | 2.51 | 1.01 | <=1 | 0.051 | <=0.05 | 1.51 | 1.31 | 1.31 | 0.801 | 0.801 |
| C[C@H](Cc1nncn1C)c1cc(OC2COC2)nc(N2Cc3c(cccc3C(F)(F)F)C2=O)c1 | 1.01 | 1.01 | 1.01 | >=0.201 | 0.101 | 1.31 | 1.01 | 1.01 | >=1.001 | 0.601 |
